Marks after values point to notes of the source that are not given here. Ends that are not written are not given here.
What was measured:
[1] = tested on: anti-SRBC antibody; assay: Sheep Red Blood Cell (SRBC) hemolysis test, antibody formation; assay type: in vivo, BALB/c mice; conditions: for anti-SRBC antibody formation, X ± SD (Unit): healthy mice, SRBC day 12 (IFN-γ, IL-2 3×10^5 IU/kg/day), saline 32 ± 7
Protocol: Sheep red blood cells (SRBC) were prepared by collecting blood from cervical vein and put into a sterile flask with glass beads. The flask was shaken for 3 minutes and the blood then mixed with Alsever solution (glucose 2.05 g, NaCl 0.4 g, […] 0.8 g, adjust to 100 ml with distilled water) and stored at 4° C. Immediately before use, samples were centrifuged at 130 g, 5 minutes to collect the SRBC. The cells were washed two times by re-suspension and centrifugation in normal saline. Then the cell pellet was collected by centrifugation at 180 g for 10 minutes and re-suspended in saline to make the final working SRBC suspension, 2% (v/v).
Complement was prepared by adding 10 volumes of fresh Cavy serum into one volume centrifuge packed SRBC, and then gently shaking for 30 minutes at 4° C. The SRBC was removed by centrifugation at 200 g for 10 minutes. 10 volumes of normal saline were added to obtain the working complement solution.
The test substances were administered as described in section 1.1, plus intraperitoneal injection 0.2 ml SRBC per mouse on day 12. On the day after the last test substance administration (day 16), blood was collected from the eye canthus and left at room temperature for one hour for serum exudation. After centrifugation at 200 g for 10 minutes, the serum was diluted by 500 times with normal saline.
To 1 ml diluted mouse serum of each mouse, 0.5 ml SRBC suspension was added. Ice cold. Then 1 ml working complement solution was added and incubated at 37° C. water bath for 10 minutes. Reactions were terminated by ice cold. Samples were then centrifuged at 200 g for 10 minutes to obtain the supernatant.
To 1 ml of this supernatant, 3 ml Drabkin solution was added and left at room temperature for 10 minutes. OD540 nm was obtained.
Reference OD540 nm was obtained by mixing 0.25 ml SRBC suspension with Drabkin solution to 4 ml and placed at room temperature for 10 minutes before OD540 nm was taken.
Sample serum index=(OD540 nm of test sample÷reference OD540 nm)×500

[2] = tested on: mononuclear phagocyte; assay: Carbon particle clearance test, phagocytosis function; assay type: in vivo, BALB/c mice; parameters: key to X ± SD (phagocytotic index): α = cube root of K × (body weight ÷ liver+spleen weight); conditions: for X ± SD (phagocytotic index): healthy mice, peptide 5 μg/kg/day i.p. 15 days (IFN-γ, IL-2 3×10^5 IU/kg/day), saline 5.1 ± 0.6; for effect on the phagocytotic activity of mononuclear phagocyte (summary): statistically significant difference from saline in any of the dosage groups 0.5-500 μg/kg/day
Protocol: On the next day after the last test substance administration (day 16), the mice were injected with […] body weight India ink (5 times dilution with normal saline) from the tail vein.
One minute and five minutes after Indian ink injection, 20 μl blood was obtained from the eye canthus with a heparinized tubing. The blood was mixed with 2 ml 0.1% w/v Na2CO3 and then OD680 nm obtained. The outline clear index K was calculated by the following formula: K=(lgA1−lgA2)÷(t2−t1)
(§1) One day after the last test substance administration (day 16), the liver, spleen, and thymus gland were separated and blotted dry with filter paper and weighed. The phagocytosis index α was calculated as below: α=(^3√{square root over ( )}K)(W÷WLS)

[3] = tested on: thymus gland; assay: Immunity organ weight test, thymus gland index; assay type: in vivo, BALB/c mice; conditions: for weight of thymus gland (thymus gland index), X ± SD (%): healthy mice, saline 0.12 ± 0.02; for effect on the weight of the thymus gland (summary): statistically significant difference from saline in any of the dosage groups 0.5-500 μg/kg/day
Protocol: as §1
Thymus gland index (%)=(thymus weight/body weight)×100%

[4] = tested on: Masugi nephritis rat model; assay: Masugi nephritis rat model; conditions: for urine protein level: 24 h urine; for spleen index / Serum creatinine level: after three weeks of treatment; for spleen index: placebo 4.8 ± 1.1, normal 2.4 ± 0.1; for Serum creatinine level: placebo 265 ± 212, normal 80 ± 1
[5] = tested on: T lymphocyte; assay: T lymphocyte transformation test (ConA-stimulated spleen cells of treated mice, MTT); assay type: in vivo, BALB/c mice
Protocol: (§2) The above substances were all dissolved in 0.5 ml saline and injected intraperitoneal (i.p.) for 15 continuous days, once per day.
(§3) Ten mice per group. The day after the last test substance administration, the mice were sacrificed by cervical dislocation. The spleen was isolated aseptically and manually dispersed in cold D-Hank's solution using an injection needle. The dispersed cell suspension was further sieved through a 100 gauge 150 μm diameter stainless steel sieve. After centrifugation at 200 g for 10 minutes, the supernatant was discarded. The cell pellet was re-suspended in 10 volume of Tris-NH4Cl buffer and then kept standing still for 10 minutes at room temperature. The suspended cells were collected by centrifugation at 150 g for 10 minutes. The cells were washed 2-4 times with cold D-Hank's solution by re-suspending and collecting by centrifugation with condition as described above. The washed cells were then diluted to the desired cell densities by RPMI-1640 culture medium, containing 10% fetal bovine serum.
Spleen cells of density 1×10^6/ml were placed onto a 96 wells cell culture plate, 100 μL/well, three parallel wells each of the assay sample and control sample per mouse. To the assay wells, 100 μl/well ConA of 100 μg/ml in RPMI-1640 was added, and […] plain RPMI-1640 was used for the controls. The cells were incubated for 66 hrs at 37° C., 5% CO2. The cells were then pelleted by centrifugation at 150 g for 10 minutes.
50 μl/well MTT of 1 mg/ml in RPMI-1640 was added to the cell pellet and the cells re-suspended by shaking for 2 minutes. The incubation was continued for 4 hours. The supernatant was discarded after centrifugation at 150 g for 10 minutes. 120 μl 40 mM HCl-2-propanol was added to the cell pellet and shaken for 3 minutes. […]
Each mouse formed three assay wells and three control wells. The Stimulation Index (SI) of each mouse was obtained by first deriving the average OD of the three parallel wells, then dividing the value of the assay wells by the control wells.

[6] = tested on: NK cell; assay: NK cell cytotoxicity activity test (spleen cells of treated mice against YAC-1 target cells, MTT); assay type: in vivo, BALB/c mice; conditions: for NK cell cytotoxic activity, X ± SD (%): healthy mice; for effect on the cytotoxic activity of NK cells (summary): statistically significant difference from saline in any of the dosage groups 0.5-500 μg/kg/day
Protocol: as §2, §3
Mice spleen cells were prepared to 4×10^6/ml as described in section 1.1 above. Target cells YAC-1 were brought to log phase and adjusted to 1×10^5/ml. Using a 96 wells cell culture plate, […] were added to the control well containing only the spleen cells; […] and 100 μl culture medium were added to the control well containing only target cells; 100 μl mouse spleen cells and 100 μl target cells were added to the NK activity assay well. Three parallel sets of the above were prepared per mouse.
Samples were centrifuged at 150 g for 10 minutes to collect the cells. The supernatant was discarded and 50 μl/well MTT of 1 mg/ml was added. The reaction-mixture was then shaken for 2 minutes, and incubated at 37° C., 5% CO2 for 4 hours. The supernatant was discarded after centrifugation at 150 g for 10 minutes. […] 40 mM HCl-2-propanol was added and shaken for 3 minutes. An ELISA reader was used to obtain OD570 nm of each well referenced at 630 nm.

[7] = tested on: interferon (IFN); parameters: species or system BALB/c mice; conditions: mouse, in vivo; for activity of T lymphocyte in secreting IFN, X ± SD (IU): ip
[8] = tested on: spleen; assay: Immunity organ weight test, spleen index; assay type: in vivo, BALB/c mice; conditions: for weight of spleen (spleen index), X ± SD (%): healthy mice, peptide 500 μg/kg/day i.p. 15 days, saline 0.53 ± 0.05; for effect on the weight of the spleen (summary): statistically significant difference from saline in any of the dosage groups 0.5-500 μg/kg/day
Protocol: as §1
Spleen index (%)=(spleen weight/body weight)×100%

[9] = peptide 0.5 μg/kg/day i.p. 15 days
[10] = peptide 500 μg/kg/day i.p. 15 days
[11] = peptide 5 μg/kg/day i.p. 15 days (IFN-γ, IL-2 3×10^5 IU/kg/day)
[12] = Week 1, peptides 50 μg/kg/day, hydrocortisone 3.3 mg/kg/day i.p., placebo 22.9 ± 22, normal 1.7 ± 1.3
[13] = Week 2, peptides 50 μg/kg/day i.p., hydrocortisone dose halved after first week, placebo 17.2 ± 14.5, normal 2.3 ± 1.1
[14] = Week 3, peptides 50 μg/kg/day i.p., hydrocortisone dose halved after first week, placebo 20.2 ± 29.0, normal 0.4 ± 0.2
[15] = statistically significant difference from saline in any of the dosage groups 0.5-500 μg/kg/day
[16] = peptide 5 μg/kg/day i.p. 15 days
[17] = peptide 50 μg/kg/day i.p. 15 days

Molecule | anti-SRBC antibody formation, X ± SD (Unit) [1, 9] | anti-SRBC antibody formation, X ± SD (Unit) [1, 10] | X ± SD (phagocytotic index) [2] | effect on the phagocytotic activity of mononuclear phagocyte (summary) [2] | weight of thymus gland (thymus gland index), X ± SD (%) [3, 11] | effect on the weight of the thymus gland (summary) [3] | urine protein level [4, 12] [mg] | urine protein level [4, 13] [mg] | urine protein level [4, 14] [mg] | spleen index ([4]; peptides 50 μg/kg/day i.p.) | Serum creatinine level ([4]; peptides 50 μg/kg/day i.p.) [µmol/L] | effect on the cytotoxic activity of NK cells (summary) [6] | effect on the secretion of IFN by T lymphocytes (summary) [7] | activity of T lymphocyte in secreting IFN, X ± SD (IU) [7] | anti-SRBC antibody formation, X ± SD (Unit) [1, 16] | anti-SRBC antibody formation, X ± SD (Unit) [1, 17] | weight of spleen (spleen index), X ± SD (%) [8] [%] | effect on the weight of the spleen (summary) [8] | other results
VGMGQKDSY | 3 ± 1 Unit | 66 ± 16 Unit | 6.7 ± 1.2 | enhance | 0.24 ± 0.04*^@^ % | increase | 7.0 ± 3.7 | 5.5 ± 7.9 | 3.3 ± 3.4 | 3.3 ± 0.8 ×10^−3 | 67 ± 1 |  |  |  |  |  |  |  | weight of thymus gland (thymus gland index), X ± SD (%) ([3]; peptide 0.5 μg/kg/day i.p. 15 days (IFN-γ, IL-2 3×10^5 IU/kg/day)): 0.20 ± 0.03 %; weight of thymus gland (thymus gland index), X ± SD (%) ([3]; peptide 50 μg/kg/day i.p. 15 days (IFN-γ, IL-2 3×10^5 IU/kg/day)): 0.23 ± 0.02*^@^ %; renal pathological microscopic examination ([4]; peptides 50 μg/kg/day i.p. 3 weeks, 6 heaviest kidneys per group): all pathological parameters of all rats were normal
MATAASSSSL [CMS021] | 57 ± 9*^@ Unit |  |  |  | 0.20 ± 0.06 % | increase |  |  |  |  |  | increase | enhance | 143 ± 17*^@^ IU | 82 ± 30*^@ Unit | 94 ± 20*^@^ Unit | 0.36 ± 0.04 | decrease | X ± SD (stimulation index) ([5]; healthy mice, peptide 500 μg/kg/day i.p. 15 days (IFN-γ, IL-2 3×10^5 IU/kg/day), saline 1.3 ± 0.1): 1.6 ± 0.1; effect on T lymphocyte transformation (summary) [5, 15]: enhance; NK cell cytotoxic activity, X ± SD (%) ([6]; peptide 50 μg/kg/day i.p. 15 days (IFN-γ, IL-2 3×10^5 IU/kg/day), saline 56 ± 8): 88 ± 12*^@^ %; effect on the synthesis of anti-SRBC antibody upon the antigenic challenge (summary) [1, 15]: enhance
LRVAPQEHPVL [CMS013] | 7 ± 1 Unit | 80 ± 16*^@ Unit | 6.7 ± 0.2 | enhance | 0.21 ± 0.05 % | increase |  |  |  |  |  | increase | enhance | 154 ± 15*^@^ IU | 93 ± 28*^@ Unit | 70 ± 9*^@ Unit | 0.44 ± 0.07 | decrease | NK cell cytotoxic activity, X ± SD (%) ([6]; peptide 500 μg/kg/day i.p. 15 days (IFN-γ, IL-2 3×10^5 IU/kg/day), saline 63 ± 9): 84 ± 9 %
C[C@]12CCC(=O)C=C1CC[C@@H]1[C@@H]2[C@@H](O)C[C@@]2(C)[C@H]1CC[C@]2(O)C(=O)CO [hydrocortisone, Hydrocortisone, reference compound] |  |  |  |  |  |  | 3.1 ± 2.0 | 7.5 ± 7.7 | 7.6 ± 7.1 | 4.5 ± 1.4 ×10^−3 | 239 ± 107 |  |  |  |  |  |  |  | growth rate of the rats ([4]; peptides 50 μg/kg/day, hydrocortisone 3.3 mg/kg/day i.p.): slower growth rate than normal
